Results on two compounds are retold here after paper PMC8434012 (Molecules, 2021).

Structures can show the parent of a compound that is named as a salt.

The conditions of data set [1]: rat, in vivo, po; cited from earlier work.
Data set [2] has as its system SH-SY5Y neuroblastoma cells. The experiment in a line: MTT cell viability assay, Aβ(25–35)-induced neurotoxicity. In kind it is cell-based. The settings on record: Aβ(25–35) 25 μM. Background: Tetrazolium dyes change colour on reduction, which living cells bring about.
Protocol: Cells were cultured in MEM supplemented with 10% heat-inactivated defined FBS, and an antibiotic mixture of 100 units/mL of penicillin and 100 μg/mL streptomycin, and grown at 37 °C in a humid atmosphere with 5% CO2.
Following the treatment, cell viability was assessed using MTT reduction assay. After adding 10 μL/well of MTT (5 mg/L) and incubating for 4 h, the supernatants were removed and 100 μL of DMSO was added in wells. After 1 h incubation at room temperature in the microshaker, the absorbance of the sample was measured by the microplate spectrophotometer reader (Molecular Devices, Sunnyvale, CA, USA) at 570 nm. The cell viability rate (%) was calculated as the absorbance of treated cells divided by that of control cells. The viability of the control cells was defined as 100%. Three independent experiments were performed in triplicate.

On to `COc1cc2c(cc1OC)C(=O)C(CC1CCN(Cc3ccccc3)CC1)C2` (centres unmarked) [DNP, Donepezil hydrochloride], for which the “donepezil excreted into urine” value in data set [1] is 1.52%.

In the case of “Aβ(25–35): β-amyloid fragment used to induce neurotoxicity in SH-SY5Y cells (GSNKGAIIGLM; Amyloid-beta protein 42; UniProt P05067 696-706, looked up, fragment)”, the “reduction of cell viability compared to vehicle treatment” value in data set [2] is recorded as 36.0%.
